Measurements as given in patent US7238727B2, “Compositions for improving lipid metabolism” (Chugai Seiyaku Kabushiki Kaisha, priority 2000, dated 2007).

Legend:
Format in all cases: in vivo
[1] = system: rabbit atherosclerotic model; assay: Intimal thickening in HE stained thoracic aorta sections; conditions: 0.2% cholesterol + 3.0% L-valine, 13 weeks
Method: (§1) Nine New Zealand White male rabbits aged 8 weeks (average body weight, 2.06 kg) were divided into three groups (n=3) by feed and fed for 13 weeks (temperature, 20 to 26° C.; humidity, 30 to 70%; illumination, 8:00 to 20:00). The untreated group was given an ordinary feed (NOSAN feed for laboratory animals, LABOR STOCK, manufactured by Nihon Nosan Kogyo, K.K.). As for the atherosclerotic model, the control group was given the ordinary feed plus 0.2% cholesterol (manufactured by Wako Pure Chemical Industries, Ltd.), and the valine group was given the ordinary feed plus 0.2% cholesterol plus 3.0% L-valine (JP, manufactured by Ajinomoto Co., Inc.). Throughout the experiment, the rabbits of each group were maintained on the feed (constant feeding) and water (using a water supplier) as desired. After 13 weeks, blood samples were collected from the abdominal aorta of the animals of each group under etherization and the animals were then sacrificed by bleeding. By subsequent autopsy, the degree of atherosclerotic lesion (plaque formation) in thoracic aorta and the degree of fatty liver were compared. Sections of the thoracic aorta and the liver were also prepared and examined histopathologically for intimal thickening and the formation of fat droplets. Sections of the thoracic aorta were HE stained (hematoxylin-eosin stained).

[2] = system: matured rat models fed with high-fat diets; assay: Serobiochemical examination of rats fed a high-fat diet
Description: (§2) After the completion of the pre-feeding, the animals were divided into 6 groups depending on feed and administration period. Rats of valine+lard groups were fed with a solid feed prepared by adding 8.4% lard (CAMERIA: manufactured by Romi Smilfood B. V.) and 3.0% L-valine (JP, manufactured by Ajinomoto Co., Inc.) to a conventional feed (CMF: manufactured by Oriental Yeast Co., Ltd.) for 2 or 4 weeks. Animals of casein+lard groups (i.e., control groups) were fed with a solid feed prepared by adding 8.4% lard and 3.0% milk-origin casein (manufactured by Wako Pure Chemical Industries, Ltd.) to the conventional feed (CMF: manufactured by Oriental Yeast Co., Ltd.) for 2 or 4 weeks. Animals of normal food groups were fed with a solid feed which was the conventional feed (CMF: manufactured by Oriental Yeast Co., Ltd.) for 2 or 4 weeks. During the experimental period, the rats of each group were maintained on the feed (constant feeding) and water (using a water supplier) as desired. Each group had 3 rats which were fed in a single cage (temperature: 20 to 26° C., humidity: 30 to 70%, illumination: 8:00 to 20:00) throughout the experimental period.
(§3) After 2 or 4 weeks, the blood samples of the animals of each group were collected from the abdominal aorta and then the animals were sacrificed by bleeding under etherization followed by autopsy. As intraperitoneal adipose tissue, the adipose tissue around the left testis and epididymis was weighed. The collected blood samples were subjected to a serobiochemical examination and the like.

[3] = system: matured rat models fed with high-fat diets; assay: Intraperitoneal adipose tissue area by abdominal CT scanning; conditions: 4 weeks-feeding group
Description: as §2
22 days after the initiation of the experiment, one rat of each of the 4 weeks-feeding groups was subjected to the abdominal CT scanning (slice width: 5 mm) under anesthesia with Nembutal. From the CT image thus obtained, the intraperitoneal adipose tissue area was determined as the mean of the intraperitoneal adipose-containing areas in posterior 4 slices from the sites where no kidney was observed.

[4] = system: rabbit atherosclerotic model; assay: Plaque formation in aortic arch specimens; parameters: key to plaque formation in specimens of aortic arch: +: visible slight plaque formation; ++: visible moderate plaque formation; −: no visible plaque formation; conditions: 13 weeks; for plaque formation in specimens of aortic arch: feed with 0.2% cholesterol + 3.0% L-valine
Method: as §1, with “In order to evaluate the efficacy of valine on atherosclerosis and fatty liver, an L-valine containing feed was administered to a rabbit atherosclerotic model and its effect was investigated. Nine” for “Nine”, “droplets.” for “droplets. Sections of the thoracic aorta were HE stained (hematoxylin-eosin stained).”

[5] = system: matured rat models fed with high-fat diets; assay: Peritesticular adipose tissue weight in rats fed a high-fat diet; conditions: for adipose tissue weight less than that of casein+lard group / mean adipose tissue weight relative to casein+lard group: 3.0% L-valine + 8.4% lard; for peritesticular adipose tissue weight: feed with 3.0% L-valine + 8.4% lard, mean±standard deviation, n=3
Method: To evaluate the effects of valine on lipid metabolism, the effects of the administration of L-valine containing feeds were examined on matured rat models fed with high-fat diets.
18 Crj:CD(SD) IGS male rats aged 12 weeks (body weight: 420 to 464 g, 443 g on average) were pre-fed for 5 days (not more than 4 animals/cage, temperature: 20 to 26° C., humidity: 30 to 70%, illumination: 8:00 to 20:00). During the pre-feeding period, the animals were maintained on a feed (constant feeding) and water (using a water supplier) as desired.
as §2, §3

[6] = system: rabbit atherosclerotic model; assay: Fatty liver by naked eye and HE stained liver sections; conditions: 0.2% cholesterol + 3.0% L-valine, 13 weeks
Method: as §1, with “droplets.” for “droplets. Sections of the thoracic aorta were HE stained (hematoxylin-eosin stained).”

[7] = 2 weeks feeding, mean±standard deviation, n=3
[8] = 4 weeks feeding, mean±standard deviation, n=3

In the case of `CC(C)[C@H](N)C(=O)O` [valine, L-valine], the “intimal thickening of thoracic aorta” value [1] is reported as “intimal thickening was hardly visible”, the “mean free fatty acid level relative to casein+lard group” value ([2]; 2 weeks feeding) is reported as “about 0.73 times” and the “mean lipid peroxide level relative to casein+lard group” value ([2]; 2 weeks feeding) is reported as “about 0.42 times”. For the same molecule, the “mean triacylglycerol level relative to casein+lard group” value ([2]; 2 weeks feeding) was “about 0.54 times”, the “mean β-lipoprotein level relative to casein+lard group” value ([2]; 2 weeks feeding) was “about 0.53 times” and the “mean serum free fatty acid level” value [2, 7] was 0.35±0.06 mEq/L. For the same molecule, the “mean serum lipid peroxide level” value [2, 7] was 1.1 ± 0.7 nmol/dL, the “mean serum triacylglycerol level” value [2, 7] was 52.0 ± 21.9 mg/dL and the “mean serum β-lipoprotein level” value [2, 7] was 33.3 ± 14.5 mg/dL. The “mean free fatty acid level relative to casein+lard group” value ([2]; 4 weeks feeding) was “about 0.82 times”, the “mean triacylglycerol level relative to casein+lard group” value ([2]; 4 weeks feeding) was “about 0.60 times” and the “mean β-lipoprotein level relative to casein+lard group” value ([2]; 4 weeks feeding) was “about 0.62 times”. For the same molecule, the “mean serum free fatty acid level” value [2, 8] was 0.36±0.11 mEq/L, the “mean serum triacylglycerol level” value [2, 8] was 67.7 ± 33.5 mg/dL and the “mean serum β-lipoprotein level” value [2, 8] was 41.0 ± 10.8 mg/dL. For the same molecule, the “increase in the intraperitoneal adipose tissue area versus casein+lard group” value ([3]; CT) was “more inhibited”, the “intraperitoneal adipose tissue area” value ([3]; CT 22 days after initiation, n=1) was 3.2 cm^2 and the “intraperitoneal adipose tissue relative to casein+lard group” value ([3]; CT, n=1) was “about 0.65 times”. The “plaque formation compared with control group” value ([4]; 0.2% cholesterol + 3.0% L-valine, n=3) was “no plaque formation was visible, or plaque formation was visible but to a lesser extent than in the control group”, the “plaque formation in specimens of aortic arch” value (from here on “plaque formation in specimens”) ([4]; animal 1) was “−” and the “plaque formation in specimens” value ([4]; animal 2) was “−”. For the same molecule, the “plaque formation in specimens” value ([4]; animal 3) was “+”, the “adipose tissue weight compared with normal food group” value ([5]; 2 weeks feeding) was “smaller than that of the normal food group” and the “adipose tissue weight less than that of casein+lard group” value ([5]; 2 weeks feeding) was 30%. The “mean adipose tissue weight relative to casein+lard group” value ([5]; 2 weeks feeding) was “about 0.70 times”, the “peritesticular adipose tissue weight” value ([5]; 2 weeks feeding) was 2.55 ± 0.38 g and the “adipose tissue weight compared with normal food group” value ([5]; 4 weeks feeding) was “smaller than that of the normal food group”. For the same molecule, the “adipose tissue weight less than that of casein+lard group” value ([5]; 4 weeks feeding) was 26%, the “mean adipose tissue weight relative to casein+lard group” value ([5]; 4 weeks feeding) was “about 0.74 times” and the “peritesticular adipose tissue weight” value ([5]; 4 weeks feeding) was 2.92 ± 0.40 g. For the same molecule, the “increase in the adipose tissue weight” value ([5]; both 2 weeks and 4 weeks feeding, feed intake almost the same) was “inhibited”, the “yellowing of the liver (fatty liver), naked eye” value [6] was “no yellowing of the liver was observed, or yellowing of the liver was visible but to a lesser extent than in the control group” and the “fat droplets and swelling of hepatocytes” value ([6]; HE stained liver sections) was “hepatocytes contained such a small number of fat droplets that they experienced no visible swelling”.
